Consider five compounds from ChEMBL document CHEMBL3112452, “Neutral β-Lactams Inactivate High Molecular Mass Penicillin-Binding Proteins of Class B1, Including PBP2a of MRSA” (ACS Med Chem Lett, 2014).

Molecules are shown by their SMILES. In brackets after ≈: the same amount, converted by molar mass.

As usually defined, the MIC is the lowest concentration found to suppress growth. Higher therefore signals a need for much substance.

Assay [1] is described as follows: Inhibition of Staphylococcus aureus PBP2a.
Assay [2] can be described thus: Inhibition of Escherichia coli PBP4 after 30 mins by SDS-PAGE.
Assay [3] can be described thus: Inhibition of Bacillus subtilis 168 PBP1 after 30 mins by SDS-PAGE. Also on record: species or system Bacillus subtilis subsp. subtilis str. 168.
Assay [4] is described as follows: Inhibition of Bacillus subtilis 168 PBP2 after 30 mins by SDS-PAGE. Also on record: species or system Bacillus subtilis subsp. subtilis str. 168.
Assay [5] addresses T1, Penicillin-binding protein 3 (Bacillus subtilis (strain 168), UniProt P42971).
T1 sequence (P42971 whole entry): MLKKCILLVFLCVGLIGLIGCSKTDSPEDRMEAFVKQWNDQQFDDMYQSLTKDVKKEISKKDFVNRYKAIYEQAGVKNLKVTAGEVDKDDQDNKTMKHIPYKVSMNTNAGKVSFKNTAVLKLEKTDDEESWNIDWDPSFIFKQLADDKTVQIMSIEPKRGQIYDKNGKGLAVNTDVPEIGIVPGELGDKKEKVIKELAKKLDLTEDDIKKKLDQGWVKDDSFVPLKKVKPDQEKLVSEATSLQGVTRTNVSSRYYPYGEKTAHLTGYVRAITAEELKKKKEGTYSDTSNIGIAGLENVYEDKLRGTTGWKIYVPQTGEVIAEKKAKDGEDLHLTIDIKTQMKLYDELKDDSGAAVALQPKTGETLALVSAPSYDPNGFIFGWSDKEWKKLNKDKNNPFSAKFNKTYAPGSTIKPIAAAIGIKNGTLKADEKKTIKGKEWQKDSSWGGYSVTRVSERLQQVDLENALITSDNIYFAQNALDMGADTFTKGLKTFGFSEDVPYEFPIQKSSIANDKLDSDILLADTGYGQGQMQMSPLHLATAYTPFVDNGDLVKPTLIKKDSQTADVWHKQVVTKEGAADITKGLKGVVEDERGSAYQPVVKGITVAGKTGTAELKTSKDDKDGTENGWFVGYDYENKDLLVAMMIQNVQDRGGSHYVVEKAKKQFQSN
Nature of the assay: Inhibition of Bacillus subtilis 168 PBP3 after 30 mins by SDS-PAGE. Details: species or system Bacillus subtilis subsp. subtilis str. 168.

Assay [6] has as its target T2, D-alanyl-D-alanine carboxypeptidase DacA (Bacillus subtilis (strain 168), UniProt P08750).
T2 sequence (P08750 whole entry): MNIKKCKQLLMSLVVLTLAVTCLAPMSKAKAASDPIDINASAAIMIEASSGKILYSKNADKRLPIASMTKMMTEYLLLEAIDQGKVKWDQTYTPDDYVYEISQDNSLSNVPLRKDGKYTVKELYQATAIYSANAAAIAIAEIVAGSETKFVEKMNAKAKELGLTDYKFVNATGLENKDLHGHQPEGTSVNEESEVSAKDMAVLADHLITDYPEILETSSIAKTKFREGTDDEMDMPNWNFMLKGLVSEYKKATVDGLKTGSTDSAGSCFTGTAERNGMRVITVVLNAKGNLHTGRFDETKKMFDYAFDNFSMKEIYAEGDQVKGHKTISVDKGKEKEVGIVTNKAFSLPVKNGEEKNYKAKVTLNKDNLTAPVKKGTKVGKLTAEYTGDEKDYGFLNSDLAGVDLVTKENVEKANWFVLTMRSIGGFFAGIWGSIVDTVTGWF
The assay can be described thus: Inhibition of Bacillus subtilis 168 PBP5 after 30 mins by SDS-PAGE. Details: species or system Bacillus subtilis subsp. subtilis str. 168.

The next assay has as its system Escherichia coli. Nature of the assay: Antimicrobial activity against wild type Escherichia coli MM 294 after 18 hrs by serial dilution method. To be noted: MM 294, 18 h. It counts as functional.
The nature of assay [7]: Inhibition of Escherichia coli BL21(DE3) PBP2 after 30 mins by SDS-PAGE.
The nature of assay [8]: Inhibition of Escherichia coli PBP5/6 after 30 mins by SDS-PAGE.
In assay [9] the test system is Staphylococcus epidermidis. The assay can be described thus: Antimicrobial activity against wild type Staphylococcus epidermidis ATCC 12228 after 18 hrs by serial dilution method. It counts as functional. The note with it: ATCC 12228, 18 h.
Assay [10] is described as follows: Inhibition of Escherichia coli PBP1a/1b after 30 mins by SDS-PAGE.
Assay [11] can be described thus: Inhibition of Escherichia coli PBP3 after 30 mins by SDS-PAGE.
A further assay concerns Bacillus subtilis. The assay can be described thus: Antimicrobial activity against wild type Bacillus subtilis 168 after 18 hrs by serial dilution method. It counts as functional. The note with it: subsp. subtilis str. 168, 18 h.
Another assay has as its system Bacillus licheniformis. The assay can be described thus: Antimicrobial activity against Bacillus licheniformis NRS 1264 after 18 hrs by serial dilution method. It counts as functional. The note with it: NRS 1264, 18 h.
In assay [12] the target is T3, Penicillin-binding protein 4 (Bacillus subtilis (strain 168), UniProt P40750).
T3 sequence (P40750 whole entry): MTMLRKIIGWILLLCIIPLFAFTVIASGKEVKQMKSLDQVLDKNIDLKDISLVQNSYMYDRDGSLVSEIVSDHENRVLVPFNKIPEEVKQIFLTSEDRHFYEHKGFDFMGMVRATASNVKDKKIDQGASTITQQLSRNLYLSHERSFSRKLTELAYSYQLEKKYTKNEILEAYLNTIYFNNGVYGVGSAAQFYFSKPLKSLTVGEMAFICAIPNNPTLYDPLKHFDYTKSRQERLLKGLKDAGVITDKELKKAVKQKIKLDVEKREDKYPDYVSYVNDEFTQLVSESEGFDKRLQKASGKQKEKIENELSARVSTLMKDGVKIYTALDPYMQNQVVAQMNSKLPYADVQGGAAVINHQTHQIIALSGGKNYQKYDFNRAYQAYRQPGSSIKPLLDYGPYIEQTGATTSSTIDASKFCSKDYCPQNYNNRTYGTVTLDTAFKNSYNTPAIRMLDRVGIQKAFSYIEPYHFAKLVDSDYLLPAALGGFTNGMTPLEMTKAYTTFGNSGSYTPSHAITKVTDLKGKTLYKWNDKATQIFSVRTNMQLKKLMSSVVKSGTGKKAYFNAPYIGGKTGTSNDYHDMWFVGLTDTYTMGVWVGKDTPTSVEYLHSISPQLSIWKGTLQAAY
The assay can be described thus: Inhibition of Bacillus subtilis 168 PBP4 after 30 mins by SDS-PAGE. Also on record: species or system Bacillus subtilis subsp. subtilis str. 168.

On to `CC(=O)OCC1=C(C(N)=O)N2C(=O)[C@@H](NC(=O)Cc3cccs3)[C@H]2SC1`, for which, in assay [1], the “Second-order inactivation rate constant (kinact/Ki)” value came out at 1.3 M⁻¹ s⁻¹.
Still for that read-out and setting: the value for `CC1=CN2C(=O)[C@@H](NC(=O)[C@H](N)c3ccccc3)[C@H]2SC1` was 0.34 M⁻¹ s⁻¹.
Consider `CC1(C)S[C@@H]2[C@H](NC(=O)COc3ccccc3)C(=O)N2[C@H]1C(=O)O` [PENICILLIN V], for which the Ki in assay [2] is 3200 M⁻¹ s⁻¹; in assay [5], 28 M⁻¹ s⁻¹; in [6], 620 M⁻¹ s⁻¹; in assay [7], 128 M⁻¹ s⁻¹; in assay [8], 96 M⁻¹ s⁻¹; in [10], 184 M⁻¹ s⁻¹. The Ki in assay [11] came to 420 M⁻¹ s⁻¹. Further, the kinact/Ki in assay [3] amounted to 110000 M⁻¹ s⁻¹; in [4], 19000 M⁻¹ s⁻¹. For the same compound, the MIC in the assay on Escherichia coli was determined as 750 µM (≈ 263 µg/mL); in [9], 370 µM (≈ 130 µg/mL); with Bacillus subtilis, 1400 µM (≈ 491 µg/mL); with Bacillus licheniformis, 1500 µM (≈ 526 µg/mL).
For the compound `COC(=O)[C@@H]1N2C(=O)[C@@H](NC(=O)COc3ccccc3)[C@H]2SC1(C)C`, the “Second-order inactivation rate constant (kinact/Ki)” value in assay [1] was 1.5 M⁻¹ s⁻¹. In addition, the MIC against Bacillus subtilis came to 25 µM (≈ 9.11 µg/mL).
Consider `CC1(C)S[C@@H]2[C@H](NC(=O)COc3ccccc3)C(=O)N2[C@H]1C(N)=O`, for which the Ki in assay [2] is 30 M⁻¹ s⁻¹; in [3], 340 M⁻¹ s⁻¹; in [4], 440 M⁻¹ s⁻¹; in assay [5], 5.3 M⁻¹ s⁻¹; in [6], 17 M⁻¹ s⁻¹; in [7] it was 1.5 M⁻¹ s⁻¹. The Ki was found to be 0.6 M⁻¹ s⁻¹ in assay [8], 0.74 M⁻¹ s⁻¹ in [10], 18 M⁻¹ s⁻¹ in [11] and 190 M⁻¹ s⁻¹ in assay [12]. Moreover, the MIC is 10000 µM (≈ 3490 µg/mL) with Escherichia coli, 95 µM (≈ 33.2 µg/mL) in assay [9], 2.3 µM (≈ 0.804 µg/mL) against Bacillus subtilis and 1.5 µM (≈ 0.524 µg/mL) against Bacillus licheniformis. In addition, the “Second-order inactivation rate constant (kinact/Ki)” value in assay [1] came out at 2 M⁻¹ s⁻¹.
